From article PMC7248880, “Preclinical Incorporation Dosimetry of [^18F]FACH—A Novel ^18F-Labeled MCT1/MCT4 Lactate Transporter Inhibitor for Imaging Cancer Metabolism with PET” (Molecules, 2020)

Columns and labels:
[1] = Vital sign monitoring after iv injection; format: in vivo; conditions: iv 156 ± 54 MBq (0.63 ± 0.49 µg), anesthetized piglets
From the text: The radiation safety of the newly developed MCT1/MCT4-specific radioligand [^18F]FACH was preclinically investigated. […] Afterwards, volumes of interest (VOIs) of the various organs were manually defined using the respective whole-body CT dataset for anatomical orientation. The estimated TIACs were extrapolated to the human entity (Equation (2)), followed by estimation of the organ doses with OLINDA 2.1 and calculation of the effective dose using tissue weighting factors as published in Publication 103 of the International Commission of Radiation Protection (ICRP103). Finally, it can be concluded that [^18F]FACH is safe with respect to the radiation risk that is caused by its systemic application for PET studies. This supports and encourages the translation of this newly developed radiopharmaceutical to clinical study phases.
Three piglets (age: ~6 weeks, weight: ~13–15 kg) were fasted on the day of imaging and received an intranuscular. injection of 1 mL azaperone and 4 mL ketamine to introduce anesthesia. […] During narcosis, the animals maintained spontaneous respiration and no mandatory ventilation was applied. The subjects were sequentially imaged after an iv injection (contralateral ear vein) of 156 ± 54 MBq [^18F]FACH (0.63 ± 0.49 µg) in a PET/CT system (Biograph16, SIEMENS, Erlangen, Germany). […]

[2] = Whole-body PET/CT distribution of activity; format: in vivo, piglets
Experimental: Early accumulation in the bone structures might be related to defluorination. At later time points, activity also accumulated in the gall bladder and the urinary bladder.
Three piglets (age: ~6 weeks, weight: ~13–15 kg) were fasted on the day of imaging and received an intranuscular. injection of 1 mL azaperone and 4 mL ketamine to introduce anesthesia. […] During narcosis, the animals maintained spontaneous respiration and no mandatory ventilation was applied. The subjects were sequentially imaged after an iv injection (contralateral ear vein) of 156 ± 54 MBq [^18F]FACH (0.63 ± 0.49 µg) in a PET/CT system (Biograph16, SIEMENS, Erlangen, Germany). The piglets were positioned prone with legs alongside the body on a custom-made plastic trough including a piglet head-holder (Figure 5). The PET acquisition was divided into a sequential (4 × 9 min, 3 × 12 min) and a static part (1 × 24 min, 1 × 30 min, 1 × 36 min), each of which was preceded by a low-dose CT to acquire structural data for attenuation correction (AC) and anatomical orientation (Figure 6). Post mortem, the urine was collected by bladder punctuation, weighted, and divided into three 1 mL samples for activity measurements in a gamma-counter (Packard Cobra II 5003 Auto Gamma Counting System, GMI, Ramsey, MN, USA).
The image data were analyzed with ROVER (ABX, Radeberg, Germany; v. 3.0.46h). […]

Structure (SMILES): CCCN(CCC[18F])c1ccc(/C=C(\C#N)C(=O)O)c(OC)c1 [[^18F]FACH, (E)-2-cyano-3-{4-[(3-[^18F]fluoropropyl)(propyl)amino]-2-methoxyphenyl}acrylic acid]
- adverse effects based on vital sign monitoring [1]: no adverse effects were observed
- distribution of activity (organs with high uptake) ([2]; one representative animal, PET at different times p.i.): high uptake in the liver, pancreas, small intestines, and spleen
- route of excretion indicated by PET ([2]; rapid uptake in liver, later gall bladder): hepatobiliary excretion
